From paper PMC10067623, “Characterization of an Aplysia vasotocin signaling system and actions of posttranslational modifications and individual residues of the ligand on receptor activity” (Frontiers in Pharmacology, 2023)
Values joined by “and” are separate entries in the source; they are usually repeats but may differ in a detail not shown here. Equal values may be shown once. “Also recorded” adds a separate entry of the source. Read-outs that look alike come from different tables or passages of the source. Bridge positions count the residues as written; N and C are the ends. Peptide text beside a SMILES is read from it. * marks the point of attachment. Acm = CC(=O)NC*

What was measured:
apVTR1 = target: T1, apVTR1 (Aplysia californica, UniProt A0ABM1ABB6); test: cell-based; assay type: cell-based; conditions: for activation of apVTR1 (IP1 response), in words / apVTR1 log[EC50]: CHO-K1 cells, without promiscuous Gαq; for apVTR1 log[EC50]: log[EC50] with negative sign as printed, average, n = 3
T1 sequence (A0ABM1ABB6 1-470): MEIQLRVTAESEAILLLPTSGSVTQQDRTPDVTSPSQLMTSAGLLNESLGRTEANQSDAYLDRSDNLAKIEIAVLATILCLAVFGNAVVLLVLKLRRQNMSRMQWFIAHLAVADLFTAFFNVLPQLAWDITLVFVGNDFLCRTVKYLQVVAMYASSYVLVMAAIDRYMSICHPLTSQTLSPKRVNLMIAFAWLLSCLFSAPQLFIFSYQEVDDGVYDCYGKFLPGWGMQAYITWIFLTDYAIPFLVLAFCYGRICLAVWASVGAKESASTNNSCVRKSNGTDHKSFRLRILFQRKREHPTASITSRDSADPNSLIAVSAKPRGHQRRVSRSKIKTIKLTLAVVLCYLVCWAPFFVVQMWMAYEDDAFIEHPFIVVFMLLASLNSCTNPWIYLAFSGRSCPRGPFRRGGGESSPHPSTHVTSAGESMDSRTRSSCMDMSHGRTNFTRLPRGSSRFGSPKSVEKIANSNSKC

apVTR2 = test: IP1 accumulation assay, apVTR2 transiently expressed in CHO-K1 cells; assay type: cell-based, Aplysia californica; conditions: for apVTR2 log[EC50]: log[EC50] with negative sign as printed, average
Class-A GPCR 3 = test: IP1 accumulation assay, Class-A GPCR 3 co-transfected with promiscuous Gαq (Gα16) in CHO-K1 cells; assay type: cell-based, Aplysia californica
[1] = n = 3, CHO-K1 cells, without promiscuous Gαq
[2] = co-transfected with promiscuous Gαq (Gα16), 10^-5 M vs 10^-10 M
[3] = CHO-K1 cells, without promiscuous Gαq
[4] = CHO-K1 cells, without promiscuous Gαq, dose-response 10^-12 M to 10^-4 M, n = 3
[5] = co-transfected with promiscuous Gαq, 10^-5 M vs 10^-10 M (control)

Compound | EC50 (apVTR1; apVTR1 EC50) | EC50 (apVTR1; apVTR1 log[EC50]) | EC50 (apVTR2) | apVTR2 log[EC50] (apVTR2; [1]) | activation of Class-A GPCR 3 (IP1 response), in words (Class-A GPCR 3; [2]) | also measured
C[C@@H]1NC(=O)[C@H](Cc2ccccc2)NC(=O)[C@@H](N)CSSC[C@@H](C(=O)N2CCC[C@H]2C(=O)N[C@@H](CCCCN)C(=O)NCC(N)=O)NC(=O)[C@H](CC(N)=O)NC(=O)[C@H](CCCNC(=N)N)NC1=O [[Ala^3]apVT] (H-CFARNCPKG-NH2; disulfide 1-6) | 30 µM | 31.6 µM | – | – | – | –
CC[C@H](C)[C@H](NC(=O)[C@H](Cc1ccccc1)NC(=O)[C@@H](N)CS)C(=O)N[C@@H](CCCNC(=N)N)C(=O)N[C@@H](CC(N)=O)C(=O)N[C@@H](CS)C(=O)N1CCC[C@H]1C(=O)N[C@@H](CCCCN)C(=O)NCC(=O)O [apVT'-OH] (H-CFIRNCPKG-OH; N-terminus assumed) | 2.2 µM | 2 µM | 2.2 µM | -5.6±0.18 M | – | –
CC[C@H](C)[C@@H]1NC(=O)[C@H](Cc2ccccc2)NC(=O)[C@@H](N)CSSC[C@@H](C(=O)N2CCC[C@H]2C(=O)N[C@@H](CCCCN)C(=O)N[C@@H](C)C(N)=O)NC(=O)[C@H](CC(N)=O)NC(=O)[C@H](CCCNC(=N)N)NC1=O [[Ala^9]apVT] (H-CFIRNCPKA-NH2; disulfide 1-6) | 1 µM | 1 µM | – | – | – | –
AstC | – | – | – | – | not responsive to any of these | –
CC[C@H](C)[C@H](NC(=O)[C@H](Cc1ccccc1)NC(=O)[C@@H](N)CS)C(=O)N[C@@H](CCCNC(=N)N)C(=O)N[C@@H](CC(N)=O)C(=O)N[C@@H](CSCNC(C)=O)C(=O)N1CCC[C@H]1C(=O)N[C@@H](CCCCN)C(=O)NCC(N)=O [[Cys(Acm)^6]apVT] (H-CFIRNC(Acm)PKG-NH2; N-terminus assumed) | 1.5 µM | 1.58 µM | 7.8 µM | -5.1±0.21 M | – | –
CC[C@H](C)[C@@H]1NC(=O)[C@H](Cc2ccccc2)NC(=O)[C@@H](N)CSSC[C@@H](C(=O)N[C@@H](C)C(=O)N[C@@H](CCCCN)C(=O)NCC(N)=O)NC(=O)[C@H](CC(N)=O)NC(=O)[C@H](CCCNC(=N)N)NC1=O [[Ala^7]apVT] (H-CFIRNCAKG-NH2; disulfide 1-6) | 1.1 µM | 1 µM | – | – | – | –
CC[C@H](C)[C@@H]1NC(=O)[C@H](Cc2ccccc2)NC(=O)[C@@H](N)CSSC[C@@H](C(=O)N2CCC[C@H]2C(=O)N[C@@H](CCCCN)C(=O)NCC(N)=O)NC(=O)[C@H](C)NC(=O)[C@H](CCCNC(=N)N)NC1=O [[Ala^5]apVT] (H-CFIRACPKG-NH2; disulfide 1-6) | 6 µM | 6.31 µM | – | – | – | –
CC[C@H](C)[C@@H]1NC(=O)[C@H](Cc2ccccc2)NC(=O)[C@@H](N)CSSC[C@@H](C(=O)N2CCC[C@H]2C(=O)N[C@@H](C)C(=O)NCC(N)=O)NC(=O)[C@H](CC(N)=O)NC(=O)[C@H](CCCNC(=N)N)NC1=O [[Ala^8]apVT] (H-CFIRNCPAG-NH2; disulfide 1-6) | 1.5 µM | 1.58 µM | – | – | – | –
CC[C@H](C)[C@@H]1NC(=O)[C@H](Cc2ccccc2)NC(=O)[C@@H](N)CSSC[C@@H](C(=O)N2CCC[C@H]2C(=O)N[C@@H](CCCCN)C(=O)NCC(=O)O)NC(=O)[C@H](CC(N)=O)NC(=O)[C@H](CCCNC(=N)N)NC1=O [apVT-OH] (H-CFIRNCPKG-OH; disulfide 1-6; N-terminus assumed) | 3.5 µM | 3.16 µM | 1 µM | -6.0±0.06 M | – | –
CC[C@H](C)[C@H](NC(=O)[C@H](Cc1ccccc1)NC(=O)[C@@H](N)CSCNC(C)=O)C(=O)N[C@@H](CCCNC(=N)N)C(=O)N[C@@H](CC(N)=O)C(=O)N[C@@H](CSCNC(C)=O)C(=O)N1CCC[C@H]1C(=O)N[C@@H](CCCCN)C(=O)NCC(N)=O [[Cys(Acm)^1,6]apVT] (H-C(Acm)FIRNC(Acm)PKG-NH2; N-terminus and C-terminus assumed) | 12 µM | 12.6 µM | 47 µM | -4.3±0.57 M | – | –
CC[C@H](C)[C@H](NC(=O)[C@H](Cc1ccccc1)NC(=O)[C@@H](N)CSCNC(C)=O)C(=O)N[C@@H](CCCNC(=N)N)C(=O)N[C@@H](CC(N)=O)C(=O)N[C@@H](CS)C(=O)N1CCC[C@H]1C(=O)N[C@@H](CCCCN)C(=O)NCC(N)=O [[Cys(Acm)^1]apVT] (H-C(Acm)FIRNCPKG-NH2; N-terminus assumed) | 2.9 µM | 3.16 µM | 7.8 µM | -5.1±0.21 M | – | –
CC[C@H](C)[C@@H]1NC(=O)[C@H](Cc2ccc(O)cc2)NC(=O)[C@@H](N)CSSC[C@@H](C(=O)N2CCC[C@H]2C(=O)N[C@@H](CC(C)C)C(=O)NCC(N)=O)NC(=O)[C@H](CC(N)=O)NC(=O)[C@H](CCC(N)=O)NC1=O [Oxytocin, reference compound] | 16 µM | 15.8 µM | – | -5.4±0.016 M | do not affect; also recorded: none of the four peptides had any effects | activation of apVTR1 (IP1 response), in words (apVTR1): weak activation effect; activation of apVTR2 (IP1 response), in words (apVTR2; [3]): weak activation effect; EC50 (apVTR2; [4]): 3.6 µM
Urotensin II | – | – | – | – | not responsive to any of these | –
CC[C@H](C)[C@@H]1NC(=O)[C@H](Cc2ccccc2)NC(=O)[C@@H](N)CSSC[C@@H](C(=O)N2CCC[C@H]2C(=O)N[C@@H](CCCCN)C(=O)NCC(N)=O)NC(=O)[C@H](CC(N)=O)NC(=O)[C@H](CCCNC(=N)N)NC1=O [apVT, Aplysia vasotocin] (H-CFIRNCPKG-NH2; disulfide 1-6; N-terminus assumed) | 0.07 µM | – | 0.077 µM and 0.07 µM | -7.1±0.18 M | – | activation of Class-A GPCR 3 (IP1 response), in words (Class-A GPCR 3): no response; also recorded: not responsive; apVTR1 EC50 (apVTR1): 0.065 µM; screening of apVTR1 activation (IP1 response), in words (apVTR1; [5]): responded; apVTR1 log[EC50] (apVTR1): -7.2±0.036 M; apVTR1 log[EC50] (apVTR1; listed as apVT'): -7.2±0.07 M; screening of apVTR2 activation (IP1 response), in words (apVTR2; [5]): responded; apVTR2 log[EC50] (apVTR2; n = 3, CHO-K1 cells, without promiscuous Gαq, listed as apVT'): -7.2±0.15 M
Vasopressin [reference compound] | – | – | – | – | none of the four peptides had any effects | activation of Class-A GPCR 3 (IP1 response), in words (Class-A GPCR 3; co-transfected with promiscuous Gαq (Gα16), 10^-5 M vs 10^-10 M, listed as Vasopressin): do not affect; activation of apVTR1 (IP1 response), in words (apVTR1): no effects; activation of apVTR2 (IP1 response), in words (apVTR2; [3]): no effects
CC(C)[C@@H]1NC(=O)[C@H](Cc2ccccc2)NC(=O)[C@@H](N)CSSC[C@@H](C(=O)N2CCC[C@H]2C(=O)N[C@H](C(=O)NCC(N)=O)[C@@H](C)O)NC(=O)[C@H](CC(N)=O)NC(=O)[C@H](CCCNC(=N)N)NC1=O [Annetocin, reference compound] (H-CFVRNCPTG-NH2; disulfide 1-6) | 5.6 µM | 6.31 µM | – | -6.0±0.20 M | do not affect; also recorded: none of the four peptides had any effects | EC50 (apVTR2; [4]): 1.1 µM
